Test results taken from patent US8420606B2, “Method of utilizing physiological activity of rare saccharide and composition containing rare saccharide” (priority 2002, dated 2013).
Entries after “also recorded” stand apart in the source; their conditions may differ.

Legend:
rat intestinal tract = experiment: glucose absorption in reversed intestinal tract; settings: D-psicose at concentration comparable to that of glucose
Method: To clarify an influence of D-psicose upon the absorption of glucose, the influence of D-psicose upon the absorption of glucose was analyzed by using a rat intestinal tract. The absorption of glucose was analyzed by measuring concentrations outside and inside a mucous membrane of an intestinal tract by a quantitative manner based on the glucose oxidase method. How the absorption of glucose changed under coexistence of D-psicose and glucose was measured. Further, how a sugar absorption system changed was analyzed by using an intestinal tract of a rat administrated with D-psicose for a long time. […] After the lapse of a certain time, the solution on the serous membrane side was sampled and the glucose concentration was measured. By adding D-psicose at various concentrations, an influence of D-psicose upon transport of glucose from the mucous membrane side to the serous membrane side was studied.

[1] = influence of psicose upon hyperglycemia; assay type: in vivo, rat; settings: 0.5 g/kg intravenous; compared with deoxyglucose control
Method: IVGTT was conducted on 8-week old male SD rats by inserting a catheter through the jugular vein, injecting 50% glucose at intervals of 20 minutes to make a hyperglycemic state, and then injecting psicose and deoxyglucose. A rare saccharide was administrated to 1 rat, and deoxyglucose was administrated to 1 rat.
Perform intravenous injection (IV) at 0.5 g/kg (i.e., 0.5 g/1000 g=500 mg/1000 g=0.5 mg/g).
Prepare rare-saccharide and deoxyglucose solutions in concentration of 0.5 g/mL (i.e., 0.5 g/1000 ul=500 mg/1000 ul=0.5 mg/ul). Prepare 2 mL of solution for each concentration.
Intravenously inject 200 ul of the solution for a 200 g rat.
Intravenously inject 250 ul of the solution for a 250 g rat.
Inject 300 ul of physiological saline after the intravenous injection.
Collect 150 ul of blood sample.
Collect blood at 9 points in time, i.e., 0, 5, 10, 15, 20, 25, 30, 45 and 60 minutes.

[2] = test system: Human vascular endothelial cells (HUVECs); experiment: MCP-1 secretion from vascular endothelial cells, ELISA; assay type: cell-based; settings: D-psicose 0, 5.6, 11.2 mM, 24 hours
Method: Human vascular endothelial cells (HUVECs) were cultured under the culture medium condition of (DMEM +10% FBS) in accordance with the ordinary method. HUVECs at concentration of about 70% were pipitted into a 96-well culture dish, and the following experiments were performed.
D-psicose was added to the HUVECs culture medium at concentrations of 0 mM, 5.6 mM and 11.2 mM. After cultivation for 24 hours, MCP-1 in the culture medium was measured by using an ELISA (Quantikine, R&D) kit.
HUVECs were pretreated for 1 hour with cytokines acting upon HUVECs and stimulating secretion of MCP-1, i.e., IL-1β (maximum secretion stimulus concentration of 1 ng/mL), and TNF-α (maximum secretion stimulus concentration of 10 ng/mL). Then, D-psicose was added at concentrations of 0 mM, 5.6 mM and 11.2 mM, and after 24-hour cultivation, the MCP-1 concentration in the culture medium was measured by using the ELISA kit. […] The secretion of MCP-1 in the vascular endothelial cells is stimulated by cytokines (IL-1β, TNF-α) at maximum secretion stimulus concentration of 1 ng/mL for IL-1β and 10 ng/mL for TNF-α.

[3] = test system: temporary eye ischemia model (rat); experiment: retina ischemia-reperfusion, glutamate by microdialysis; assay type: in vivo; settings: D-allose 200 mg/kg intravenous before the ischemia
Method: (1) Purpose: This Example 6 is intended to study an influence of D-allose upon the retina in a temporary eye ischemia model (rat). (2) Method: The temporary eye ischemia model was prepared by raising the intraocular pressure up to a level of about 120 mmHg. The model was subjected to ischemia for 45 minutes and then to reperfusion. The concentration of glutamate released in the ischemia-reperfusion process was measured by the microdialysis method.

[4] = test system: glutamate release from hippocampus; experiment: temporary brain ischemia, glutamate outside hippocampus neurons by micro-dialysis; assay type: in vivo, gerbil
Method: (2) Method: The bilateral common carotid artery of a gerbil was shut off for 5 minutes. After 1 week, the gerbil was sacrificed and a sample was prepared in accordance with the ordinary method, followed by hematoxyline eosin dyeing. The survival rate was measured by counting the number of hippocampus neurons while looking at them under a microscope. Experiments were performed on a normal control group, a group subjected to only ischemia, and a group administrated with 200 mg/kg of D-allose or D-psicose before ischemia. It is known that glutamates released in large amount from the neurons with ischemia are toxic to the neurons. Such a point was examined by fixing the gerbil to a brain position fixing device, perfusing a solution, in which oxidase glutamate is dissolved, to the hippocampus through a probe for micro-dialysis, and measuring the glutamate concentration outside the hippocampus neurons. Also, the inventors have clarified the relationship between the metabolism of glucose and the action mechanism of D-allose with ischemia by pre-administrating D-allose and 2-deoxiglucose.

livers of rats = experiment: rat liver ischemia-reperfusion, survival; assay type: in vivo; settings: liver ischemia 90 minutes then reperfusion; D-allose 0.2 g/kg perfused before the ischemia; usually only 30%
Method: When a surgical operation for intestinal organs, such as the liver, is performed, a blood flow is always temporarily stopped. This brings the intestinal organs into the ischemia state. When blood is started to flow again after the surgery, active oxygen is produced in large amount from leukocyte at that time, which is considered as one of major causes bringing about the organic injury. The inventors conducted an experiment through the steps of bringing the livers of rats into the ischemia state for a relatively long time, i.e., 90 minutes, and then reperfusing blood to examine the survival rate of the rats after 3 months depending on application or non-application of the rare saccharide. While the survival rate is usually only 30%, it increased to about 70% by perfusing D-allose at 0.2 g/kg before the ischemia. […] This effect is considered to be one factor making D-allose effective in organ protection.

Structure (SMILES) | rise of glucose concentration on the serous membrane side (rat intestinal tract) | blood sugar value in hyperglycemic state [1] | insulin concentration in hyperglycemic state [1] | basic secretion of MCP-1 [2] | cytokine-stimulated secretion of MCP-1 ([2]; IL-1β 1 ng/mL pretreatment 1 hour) | glutamate concentration during the reperfusion [3] | glutamate concentration during the ischemia ([3]; 45 minutes ischemia, versus control) | inhibition rate of second peak of glutamate release (hyperperfusion after ischemia) ([4]; administration of D-allose) | inhibition rate of first peak of glutamate release (with ischemia) ([4]; pre-administration of D-allose) | survival rate of the rats after 3 months (livers of rats)
O=C(CO)[C@H](O)[C@H](O)[C@H](O)CO [D-psicose] | significantly inhibited | reduced more quickly | an increase in the insulin secretion | able to inhibit the secretion of MCP-1 depending on the concentration; also recorded: has a MCP-1 secretion inhibitory effect | inhibited by added D-psicose depending on the concentration; also recorded: inhibits secretion of MCP-1 |  |  |  |  | 
O=C[C@H](O)[C@H](O)[C@H](O)[C@H](O)CO [D-allose] |  |  |  |  |  | completely inhibited | inhibited in comparison with that in the control | about 90% | about 25% | about 70%
